Source: patent EP4389751A1, “HETEROCYCLIC COMPOUNDS AND USES THEREOF” (Kumquat Biosciences Inc., priority 2021, dated 2024)
Like-named read-outs stand apart in the source and are kept apart here.

How the values were obtained:
[1] = molecular target: T1, K-Ras G12S (Homo sapiens, UniProt P01116, G12S); test: HTRF assay of the K-Ras / SOS1 interaction; format: biochemical; conditions: IC50 (against K-Ras G12D) to IC50 (against K-Ras G12S)
T1 construct: made in house; host or cells: E. coli (e.g., BL21 (DE3))
Summary of the method: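 GST-K-Ras G12S with anti-GST-Eu donor and His-hSOS1 with anti-6His-XL665 acceptor in ~5 mM HEPES pH 7.4, ~150 mM NaCl, 1 mM DTT, 0.05% BSA, 0.0025% Igepal. Read after ~10 min or longer; IC50 from 665/620 nm ratio, duplicates at 10 µM down to 0.01 µM.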

[2] = system: A549 cells; test: Cell proliferation assay (CellTiter-Glo), K-Ras G12S cells; format: cell-based; conditions: for IC50: Homo sapiens, A549, A549 cells (K-Ras G12S), read-out: Inhibition of A549 Cells (IC50)
Protocol: A549 (ATCC CRL-185) and LS123 (ATCC CRL-255) cell lines comprise a G12S mutation and can be used to assess Ras cellular signaling in vitro, e.g., in response to the compounds herein. A549 culture medium is prepared with RPMI-1640 and 10% heat-inactivated FBS. LS123 culture medium is prepared with RPMI-1640 and 10% heat-inactivated FBS. A CellTiter-Glo (CTG) luminescent based assay (Promega) is used to assess growth of the cells, as a measurement of the ability of the compounds herein to inhibit Ras signaling in the cells. The cells (e.g., 800 per well) are seeded in their respective culture medium in standard tissue culture-treated 384-well format plates (Falcon #08-772-116) or ultra-low attachment surface 384-well format plates (S-Bio # MS-9384WZ). The day after plating, cells are treated with a dilution series (e.g., a 10 point 3-fold dilution series) of the compounds herein (e.g., approximately 40 µl final volume per well). Cell viability can be monitored (e.g., approximately 6 days later) according to the manufacturer's recommended instructions, where the CellTiter-Glo reagent is added (e.g., approximately 10 µl), vigorously mixed, covered, and placed on a plate shaker (e.g., approximately for 20 min) to ensure sufficient cell lysis prior to assessment of luminescent signal. The IC50 values are determined using the four parameter fit. The resulting IC50 value is a measurement of the ability of the compounds herein to reduce cell growth of Ras-driven cells (e.g., tumor cell lines) in vitro and/or in vivo.

[3] = system: GP2D cells; test: Cell proliferation assay (CellTiter-Glo), K-Ras G12D cells; format: cell-based; conditions: GP2D cells (K-Ras G12D); read-out: Inhibition of GP2D Cells (IC50)
Summary of the method: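 GP2D (K-Ras G12D) cells seeded in DMEM with 2 mM glutamine and 10% FBS, then dosed next day with a dilution series (e.g., 9-point 3-fold). Viability read by CellTiter-Glo luminescence after about 5 days. IC50 from four-parameter fit.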

[4] = molecular target: T2, KRAS protein (His-tagged GDP-loaded G12S 1-169) (Homo sapiens, UniProt P01116, G12S); test: Covalent modification of KRAS protein, intact-protein LC-MS; format: binding; conditions: 24hrs at room temperature, KRAS protein ~2 µM
T2 construct: His-tagged GDP-loaded G12S 1-169
Summary of the method: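 His-tagged GDP-loaded KRAS 1-169 (~2 µM) incubated with compound 24 h at room temperature, then quenched with formic acid. Intact-protein LC-ESI-MS on C4 column; deconvoluted peak intensities of unmodified and adducted protein give percent covalent modification.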

| IC50 ([2]; bin 500 nM to 5 µM) [nM] | ratio of IC50 against a G12D cell line to IC50 against a G12S cell line ([2]; K-Ras G12D cell line such as GP2D relative to K-Ras G12S cell line such as A549, greater than 1, 2, 3, 4, 5, 10, 15 or even greater, 8640 min) | Compound | Ratio of IC50 KRAS G12D vs. IC50 KRAS G12S [1] | IC50 [3] [nM] | IC50 ([2]; bin ≤ 500 nM) [nM] | % G12S Modification at 24 hr. [4] |
| --- | --- | --- | --- | --- | --- | --- |
| 500 to 5000 | – | N#Cc1c(N)sc2c(F)ccc(-c3c(Cl)cc4c(N5CCC6CN(C(=O)Nc7ncccn7)CCC65)nc(OC[C@@]56CCCN5C[C@H](F)C6)nc4c3F)c12 (single isomer, unassigned) [Compound A271] | A (A: indicates that the ratio of IC50 against KrasG12D vs. IC50 against KrasG12S is 1-fold or greater) | – | – | – |
| – | – | N#Cc1c(N)sc2c(F)ccc(-c3c(Cl)cc4c(N5CC6CCC(C5)N6C(=O)n5ccnc5)nc(OC[C@@]56CCCN5C[C@H](F)C6)nc4c3F)c12 [Compound A105, 4-(4-(8-(1H-imidazole-1-carbonyl)-3,8-diazabicyclo[3.2.1]octan-3-yl)-6-chloro-8-fluoro-2-(((2R,7aS)-2-fluorotetrahydro-1H-pyrrolizin-7a(5H)-yl)methoxy)quinazolin-7-yl)-2-amino-7-fluorobenzo[b]thiophene-3-carbonitrile] | – | ≤ 1000 | ≤ 500 | – |
| – | – | Cc1nc(C)n(C(=O)N2CC3(CCCCN(c4nc(OC[C@@]56CCCN5C[C@H](F)C6)nc5c(F)c(-c6ccc(F)c7sc(N)c(C#N)c67)c(Cl)cc45)C3)C2)n1 [Compound A116, 2-amino-4-(6-chloro-4-(2-(3,5-dimethyl-1H-1,2,4-triazole-1-carbonyl)-2,6-diazaspiro[3.6]decan-6-yl)-8-fluoro-2-(((2R,7aS)-2-fluorotetrahydro-1H-pyrrolizin-7a(5H)-yl)methoxy)quinazolin-7-yl)-7-fluorobenzo[b]thiophene-3-carbonitrile] | – | ≤ 1000 | ≤ 500 | – |
| – | – | C#Cc1c(F)ccc2cc(O)cc(-c3ncc4c(N5CC6CCC(C5)N6C(=O)n5cc(C#N)cn5)nc(OC[C@@]56CCCN5C[C@H](F)C6)nc4c3F)c12 [Compound A143, 1-(3-(7-(8-ethynyl-7-fluoro-3-hydroxynaphthalen-1-yl)-8-fluoro-2-(((2R,7aS)-2-fluorotetrahydro-1H-pyrrolizin-7a(5H)-yl)methoxy)pyrido[4,3-d]pyrimidin-4-yl)-3,8-diazabicyclo[3.2. 1]octane-8-carbonyl)-1H-pyrazole-4-carbonitrile] | – | ≤ 1000 | ≤ 500 | – |
| 500 to 5000 | – | Nc1nc2c(-c3c(Cl)cc4c(N5CC6CN(C(=O)n7cncn7)C6C5)nc(OC[C@@]56CCCN5C[C@H](F)C6)nc4c3F)ccc(F)c2s1 (stereo partly drawn) [Compound A177, (3-(7-(2-amino-7-fluorobenzo[d]thiazol-4-yl)-6-chloro-8-fluoro-2-(((2R,7aS)-2-fluorotetrahydro-1H-pyrrolizin-7a(5H)-yl)methoxy)quinazolin-4-yl)-3,6-diazabicyclo[3.2.0]heptan-6-yl)(1H-1,2,4-triazol-1-yl)methanone] | – | ≤ 1000 | – | – |
| – | – | Cc1ncn(C(=O)N2CC3CN(c4nc(OC[C@@]56CCCN5C[C@H](F)C6)nc5c(F)c(-c6ccc(F)c7sc(N)c(C#N)c67)c(Cl)cc45)CC32)n1 (stereo partly drawn) [Compound A196, 2-amino-4-(6-chloro-8-fluoro-2-(((2R,7aS)-2-fluorotetrahydro-1H-pyrrolizin-7 a(5H)-yl)methoxy)-4-(6-(3-methyl-1H-1,2,4-triazole-1-carbonyl)-3,6-diazabicyclo[3.2.0]heptan-3-yl)quinazolin-7-yl)-7-fluorobenzo[b]thiophene-3-carbonitrile] | – | ≤ 1000 | ≤ 500 | – |
| – | – | N#Cc1c(N)sc2c(F)ccc(-c3c(Cl)cc4c(N5CC6CCC(C5)N6C(=O)Nc5ncccn5)nc(OC[C@@]56CCCN5C[C@H](F)C6)nc4c3F)c12 [Compound A215, 3-(7-(2-amino-3-cyano-7-fluorobenzo[b]thiophen-4-yl)-6-chloro-8-fluoro-2-(((2R,7aS)-2-fluorotetrahydro-1H-pyrrolizin-7a(5H)-yl)methoxy)quinazolin-4-yl)-N-(pyrimidin-2-yl)-3,8-diazabicyclo[3.2. 1]octane-8-carboxamide] | – | ≤ 1000 | ≤ 500 | – |
| – | greater than 1 | N#Cc1c(N)sc2c(F)ccc(-c3c(Cl)cc4c(N5CCC6CN(C(=O)Nc7ncccn7)CCC65)nc(OC[C@@]56CCCN5C[C@H](F)C6)nc4c3F)c12 (stereo partly drawn) [Compound A251, 1-(7-(2-amino-3-cyano-7-fluorobenzo[b]thiophen-4-yl)-6-chloro-8-fluoro-2-(((2R,7aS)-2-fluorotetrahydro-1H-pyrrolizin-7a(5H)-yl)methoxy)quinazolin-4-yl)-N-(pyrimidin-2-yl)octahydro-5H-pyrrolo[3,2-c]pyridine-5-carboxamide] | – | 1000 to 10000 | ≤ 500 | – |
| – | – | Nc1nc2c(-c3c(Cl)cc4c(N5CC6(CCN(C(=O)n7cncn7)C6)C5)nc(OC[C@@]56CCCN5C[C@H](F)C6)nc4c3F)ccc(F)c2s1 [Compound A279, (2-(7-(2-amino-7-fluorobenzo[d]thiazol-4-yl)-6-chloro-8-fluoro-2-(((2R,7aS)-2-fluorotetrahydro-1H-pyrrolizin-7a(5H)-yl)methoxy)quinazolin-4-yl)-2,6-diazaspiro[3.4]octan-6-yl)(1H-1,2,4-triazol-1-yl)methanone] | A (A: indicates that the ratio of IC50 against KrasG12D vs. IC50 against KrasG12S is 1-fold or greater) | 1000 to 10000 | – | +++ (+++ indicates greater than 20% labelling) |
| – | – | N#Cc1c(N)sc2c(F)ccc(-c3c(Cl)cc4c(N5CCN(C(=O)n6cncn6)CC(F)(F)C5)nc(OC[C@@]56CCCN5C[C@H](F)C6)nc4c3F)c12 [Compound A280, 2-amino-4-(6-chloro-4-(6,6-difluoro-4-(1H-1,2,4-triazole-1-carbonyl)-1,4-diazepan-1-yl)-8-fluoro-2-(((2R,7aS)-2-fluorotetrahydro-1H-pyrrolizin-7a(5H)-yl)methoxy)quinazolin-7-yl)-7-fluorobenzo[b]thiophene-3-carbonitrile] | A (A: indicates that the ratio of IC50 against KrasG12D vs. IC50 against KrasG12S is 1-fold or greater) | ≤ 1000 | – | +++ (+++ indicates greater than 20% labelling) |
| – | – | CC1(C)CN(c2nc(OC[C@@]34CCCN3C[C@H](F)C4)nc3c(F)c(-c4ccc(F)c5sc(N)c(C#N)c45)c(Cl)cc23)CC2(CN(C(=O)n3cncn3)C2)O1 [Compound A296, 2-amino-4-(6-chloro-4-(6,6-dimethyl-2-(1H-1,2,4-triazole-1-carbonyl)-5-oxa-2,8-diazaspiro[3.5]nonan-8-yl)-8-fluoro-2-(((2R,7aS)-2-fluorotetrahydro-1H-pyrrolizin-7a(5H)-yl)methoxy)quinazolin-7-yl)-7-fluorobenzo[b]thiophene-3-carbonitrile] | A (A: indicates that the ratio of IC50 against KrasG12D vs. IC50 against KrasG12S is 1-fold or greater) | 1000 to 10000 | – | +++ (+++ indicates greater than 20% labelling) |

| Compound | IC50 ([2]; bin 500 nM to 5 µM) [nM] | ratio of IC50 against a G12D cell line to IC50 against a G12S cell line ([2]; K-Ras G12D cell line such as GP2D relative to K-Ras G12S cell line such as A549, greater than 1, 2, 3, 4, 5, 10, 15 or even greater, 8640 min) | Ratio of IC50 KRAS G12D vs. IC50 KRAS G12S [1] | IC50 [3] [nM] | IC50 ([2]; bin ≤ 500 nM) [nM] | % G12S Modification at 24 hr. [4] |
| --- | --- | --- | --- | --- | --- | --- |
| N#Cc1cnn(C(=O)N2C3CCC2CN(c2nc(OC[C@@]45CCCN4C[C@H](F)C5)nc4c(F)c(-c5ccc(F)c6sc(N)nc56)c(Cl)cc24)C3)c1 [Compound A253, 1-(3-(7-(2-amino-7-fluorobenzo[d]thiazol-4-yl)-6-chloro-8-fluoro-2-(((2R,7aS)-2-fluorotetrahydro-1H-pyrrolizin-7a(5H)-yl)methoxy)quinazolin-4-yl)-3,8-diazabicyclo[3.2. 1]octane-8-carbonyl)-1H-pyrazole-4-carbonitrile] | 500 to 5000 | – | – | ≤ 1000 | – | – |
